{"source": "patent US20090104705A1", "about": "“Ascorbic acid conjugates” (priority 2005, published 2009)", "key": {"[1]": {"system": "ICAM-1 expression in HAECs", "test": "ICAM-1 expression in HAECs by ELISA", "format": "cell-based, human", "conditions": "35 μM, 24 hours, 5% bovine calf serum", "description": "This example establishes that vitamin C has the ability to abolish HPODE-induced endothelial activation. HAECs were exposed to HPODE or HPODE pretreated with ascorbate. […] Thus, vitamin C pre-treatment of HPODE leads to inactivation of HPODE with respect to its effect on ICAM-1 expression, which supports the proposition that vitamin C-induced degradation of LOOHs and subsequent ascorbylation of the resultant LPO products represents a pathway for elimination and detoxification of LOOHs and their degradation products (Scheme 2). […] As mentioned earlier, there is extensive data in the literature showing that specific LPO products elicit endothelial activation.\nWith reference to FIG. 14 HPODE was prepared by soybean lipoxygenase treatment of a solution of linoleic acid in phosphate buffer, pH 8.2, with stirring and air bubbling. […] The solution was acidified, and the mixture of HPODE-derived products was recovered from the aqueous solution by extraction with ethyl acetate. The combined ethyl acetate layers were washed with water to remove traces of ascorbic acid. The residue on evaporation was dissolved in 1.0 ml of ethanol, and the solution termed ‘ascorbate-treated HPODE’. […] Activation of HAECs was measured by quantifying ICAM-1 using a commercially available ELISA kit (Zhang and Frei 2001)."}, "[2]": {"system": "human aortic endothelial cells (HAECs)", "test": "MTT assay, cytotoxicity in human aortic endothelial cells", "format": "cell-based", "conditions": "25 to 100 μM, up to 66 hours, 20% bovine calf serum", "description": "FIG. 13 illustrates the results of cytotoxicity studies in human aortic endothelial cells (HAECs) using the MTT assay (described below). […] The observed cytotoxic effect of HNE is relatively moderate, which is likely due to the presence of 20% bovine calf serum in the culture medium of HAECs, causing inactivation of HNE by adduction to serum proteins and other serum constituents. […] FIG. 13, panel C further illustrates the large difference in cytotoxicity between HNE and ascorbylated HNE in HAECs treated with both compounds at 75 or 100 μM for 42 hours. The results of these experiments strongly support the hypothesis that ascorbylation represents a detoxification pathway for HNE and other electrophilic LPO products.\nWith reference to […], Cells were grown to confluence in 96-well plates and exposed to 25, 50, 75 or 100 μM HNE or ascorbylated HNE for up to 66 hours (Panels A and B). Cell viability was assessed by spectrophotometric (590 nm) measurement of the reduction of MTT (3-[4,5-dimethylthiazol-2-yl]-2,5-diphenyltetrazolium bromide) by dehydrogenases in respiring mitochondria, and expressed as a percentage of the control (1.0% ethanol). […] The data are presented as mean of five observations (±SD). Asc-HNE=ascorbylated HNE; numbers in legends refer to μM concentrations."}, "[3]": {"system": "ICAM-1 expression in BAECs", "test": "ICAM-1 expression in BAECs by ELISA", "format": "cell-based", "conditions": "25 μM, 24 hours, 20% bovine calf serum, data not shown", "experimental": "The effect of HNE and ascorbylated HNE on endothelial activation also was determined. To this end, BAECs were exposed to 25 μM HNE or ascorbylated HNE for 24 hours in the presence of 20% bovine calf serum, and subsequently ICAM-1 expression was measured by ELISA. […] In contrast, HNE was reported to inhibit LPS-induced NFκB activation in human monocytic cells (Herbst et al. 1999; Page et al. 1999) and constitutive ICAM-1 expression in HUVECs (Herbst et al. 1999). […] However, unlike the incubation conditions with 20% bovine calf serum, the experiments by Herbst and colleagues were conducted in a serum-free environment in order to avoid inactivation of HNE by serum proteins (see above)."}, "[4]": {"test": "Stability of ascorbyl-HNE conjugate in stored plasma", "format": "physicochemical, human", "experimental": "A problem with current biomarkers of oxidative stress is the formation of ex vivo-artifacts arising from sample instability or sample handling. The presence of the ascorbyl-HNE adduct in plasma is not due to an ex vivo-artifact. Moreover, the stability of the ascorbyl-HNE adduct was confirmed to ensure that its concentration was not fluctuating as a function of time. Specifically, aliquots of a plasma sample were analyzed over a time period of one month."}, "[5]": {"system": "ICAM-1 expression in HUVECs", "conditions": "serum-free environment; cited from earlier work"}}}
{"compound": "hydroperoxy octadecadienoic acids [HPODE]", "values": [{"measurement": "ICAM-1 expression compared to the vehicle control", "setting": "[1]", "result": "increase in ICAM-1 expression"}]}
{"compound": "CCCCCC1OC(O)CC1C1(O)C(=O)OC2C(O)COC21O", "note": "(stereo not drawn) [ascorbyl-HNE conjugate, 3,3α,6-trihydroxy-3-(5-hydroxy 2-pentyl-tetrahydro-furan-3-yl)-tetrahydro-furo[3,2-b]furan-2-one]", "values": [{"measurement": "cell viability of HAECs (MTT assay)", "setting": "[2]", "result": "not cytotoxic at any of the concentrations tested"}, {"measurement": "change of ICAM-1 expression compared to the vehicle control", "setting": "[3]", "result": "Neither HNE nor ascorbylated HNE caused a change of ICAM-1 expression"}, {"measurement": "stability of the conjugate in plasma", "setting": "[4]; 4° C.", "result": "stable for at least a month"}, {"measurement": "change in the ascorbyl-HNE conjugate concentration", "setting": "[4]; plasma aliquots over one month at 4° C.", "result": 5.2, "unit": "%"}]}
{"compound": "CCCCCC(O)C=CC=O", "note": "(centres unmarked) [HNE, 4-hydroxy-2-nonenal]", "values": [{"measurement": "cell viability of HAECs (MTT assay)", "setting": "[2]", "result": "progressive decrease in cell viability"}, {"measurement": "change of ICAM-1 expression compared to the vehicle control", "setting": "[3]", "result": "Neither HNE nor ascorbylated HNE caused a change of ICAM-1 expression"}, {"measurement": "concentration at which the inhibitory effect on ICAM-1 expression was observed", "setting": "[5]", "result": "≥ 5", "unit": "µM"}]}
